The values that follow come from article PMC6010071, “Blocking oestradiol synthesis pathways with potent and selective coumarin derivatives” (Journal of Enzyme Inhibition and Medicinal Chemistry, 2018).

SMILES strings stand for the structures. A value given as a limit tells only on which side of the number the result lay.

For the first test, the target named is T1, Aromatase (CYP19A1), human placental microsomes (Homo sapiens, UniProt P11511).
T1 construct: by using human placental microsomes; from tissue; host or cells: human placental microsomes
T1 sequence (P11511 1-503): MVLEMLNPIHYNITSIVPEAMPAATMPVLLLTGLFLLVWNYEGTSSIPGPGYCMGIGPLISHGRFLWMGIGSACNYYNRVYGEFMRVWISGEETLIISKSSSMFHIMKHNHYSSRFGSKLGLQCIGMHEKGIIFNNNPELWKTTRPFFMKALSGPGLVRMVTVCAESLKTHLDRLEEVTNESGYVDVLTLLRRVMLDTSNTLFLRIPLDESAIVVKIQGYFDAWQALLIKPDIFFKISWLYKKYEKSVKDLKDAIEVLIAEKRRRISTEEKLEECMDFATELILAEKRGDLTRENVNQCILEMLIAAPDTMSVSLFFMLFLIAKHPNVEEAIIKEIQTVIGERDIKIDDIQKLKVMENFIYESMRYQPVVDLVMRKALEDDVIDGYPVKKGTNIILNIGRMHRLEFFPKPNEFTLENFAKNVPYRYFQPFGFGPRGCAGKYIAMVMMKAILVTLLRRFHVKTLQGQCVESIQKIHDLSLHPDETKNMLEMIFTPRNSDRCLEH
Nature of the test: Aromatase activity, [3H]-H2O release from [3H]-androstenedione. It counts as biochemical. The note with it: 50 nM [3H]-androstenedione; inhibitor 60–1000 nM; read-out: Aromatase inhibition ∼ pIC50 (converted). As to the method: Aromatase (CYP19A1) activity was measured as described previously[22] by using human placental microsomes and 50 nM [3H]-androstenedione as a substrate and inhibitor concentrations in the range of 60–1000 nM. Aromatase activities were measured as released [3H]-H2O in Optiphase Hisafe 2 scintillation liquid (Perkin Elmer, Waltham, MA) with a Wallac 1450 MicroBeta Trilux scintillation counter (Perkin Elmer, Waltham, MA). As a positive control for aromatase inhibition, 1 µM finrozole (generous gift from Olavi Pelkonen, University of Oulu, Finland) was used.
As to `O=c1oc2ccc(Cl)cc2cc1-c1cccc(O)c1` [Compound 4, 6-chloro-3–(3-hydroxyphenyl)-2H-chromen-2-one], the IC50 is more than 1 µM.
Turning to `O=c1oc2ccccc2cc1-c1cccc(O)c1` [Compound 3, 3–(3-hydroxyphenyl)-2H-chromen-2-one], the IC50 was more than 1 µM.
As to `COc1ccc(-c2cc3cccc(O)c3oc2=O)cc1` [Compound 1, 8-hydroxy-3–(4-methoxyphenyl)-2H-chromen-2-one], the IC50 was more than 1 µM.
On the same count and under the same terms, next, `COc1ccc2cc(-c3ccc(O)c(F)c3)c(=O)oc2c1` [Compound 6, 3–(3-fluoro-4-hydroxyphenyl)-7-methoxy-2H-chromen-2-one]: more than 1 µM; `O=c1oc2ccc(O)cc2cc1-c1ccc(O)cc1` [Compound 2, 6-hydroxy-3–(4-hydroxyphenyl)-2H-chromen-2-one]: more than 1 µM; `COc1ccc2oc(=O)c(-c3ccc(O)c(F)c3)cc2c1` [Compound 7, 3–(3-fluoro-4-hydroxyphenyl)-6-methoxy-2H-chromen-2-one]: more than 1 µM.

The target in another test is T2, ERα (Homo sapiens, UniProt P03372).
T2 construct: purchased Life Technologies, Carlsbad, CA
T2 sequence (P03372 1-595): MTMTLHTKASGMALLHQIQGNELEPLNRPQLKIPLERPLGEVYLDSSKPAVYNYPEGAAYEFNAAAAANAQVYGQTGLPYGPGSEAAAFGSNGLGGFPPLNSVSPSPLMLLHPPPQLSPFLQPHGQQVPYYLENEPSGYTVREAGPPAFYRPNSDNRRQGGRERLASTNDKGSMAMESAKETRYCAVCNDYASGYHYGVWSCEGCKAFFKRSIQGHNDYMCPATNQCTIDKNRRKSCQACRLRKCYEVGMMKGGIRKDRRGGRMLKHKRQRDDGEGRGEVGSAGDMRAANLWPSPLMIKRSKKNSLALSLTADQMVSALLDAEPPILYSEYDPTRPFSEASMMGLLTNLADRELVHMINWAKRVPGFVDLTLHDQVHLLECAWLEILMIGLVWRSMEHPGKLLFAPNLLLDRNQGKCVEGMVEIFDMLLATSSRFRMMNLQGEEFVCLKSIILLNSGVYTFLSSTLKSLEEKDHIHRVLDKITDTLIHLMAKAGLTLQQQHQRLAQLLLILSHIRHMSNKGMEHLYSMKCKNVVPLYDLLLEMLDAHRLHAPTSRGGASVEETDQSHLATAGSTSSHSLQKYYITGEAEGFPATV
Nature of the test: PolarScreen ER Alpha Competitor Assay (fluorescence polarisation). It counts as binding.
Details: not given
As to the method:
The pIC50 values of the molecules (Table 1) were measured using green PolarScreen™ ER Alpha Competitor Assay (Life Technologies, Carlsbad, CA) kit, following the protocol provided by the manufacturer as previously described. The final concentration of the molecules ranged between 0.0007 and 10,000 nM in the prepared dilution series. […] After mixing the assay plate, it was incubated for 2 h at the room temperature.
Regarding `COc1ccc2cc(-c3ccc(O)c(F)c3)c(=O)oc2c1` [Compound 6, 3–(3-fluoro-4-hydroxyphenyl)-7-methoxy-2H-chromen-2-one], the “ER inhibition (in words)” value is reported as “reasonable ER inhibition”.

Still in this test, the particulars now being: 25 nM ERα, 4.5 nM fluormone; read-out: ER binding pIC50 (converted).
On to `O=c1oc2ccc(Cl)cc2cc1-c1cccc(O)c1` [Compound 4, 6-chloro-3–(3-hydroxyphenyl)-2H-chromen-2-one], for which the IC50 was more than 10 µM.
On the same count and under the same terms, next, `O=c1oc2ccccc2cc1-c1cccc(O)c1` [Compound 3, 3–(3-hydroxyphenyl)-2H-chromen-2-one]: more than 10 µM; `COc1ccc(-c2cc3cccc(O)c3oc2=O)cc1` [Compound 1, 8-hydroxy-3–(4-methoxyphenyl)-2H-chromen-2-one]: more than 10 µM.
With `COc1ccc2cc(-c3ccc(O)c(F)c3)c(=O)oc2c1` [Compound 6, 3–(3-fluoro-4-hydroxyphenyl)-7-methoxy-2H-chromen-2-one], the IC50 was 0.708 µM.
Still for that read-out and setting: to `O=c1oc2ccc(O)cc2cc1-c1ccc(O)cc1` [Compound 2, 6-hydroxy-3–(4-hydroxyphenyl)-2H-chromen-2-one] belongs more than 10 µM; to `COc1ccc2oc(=O)c(-c3ccc(O)c(F)c3)cc2c1` [Compound 7, 3–(3-fluoro-4-hydroxyphenyl)-6-methoxy-2H-chromen-2-one], more than 10 µM.

The next test deals with T3, recombinant human HSD1 (Homo sapiens, UniProt P14061).
T3 construct: made in house; host or cells: Sf9 insect cells
T3 sequence (P14061 1-328): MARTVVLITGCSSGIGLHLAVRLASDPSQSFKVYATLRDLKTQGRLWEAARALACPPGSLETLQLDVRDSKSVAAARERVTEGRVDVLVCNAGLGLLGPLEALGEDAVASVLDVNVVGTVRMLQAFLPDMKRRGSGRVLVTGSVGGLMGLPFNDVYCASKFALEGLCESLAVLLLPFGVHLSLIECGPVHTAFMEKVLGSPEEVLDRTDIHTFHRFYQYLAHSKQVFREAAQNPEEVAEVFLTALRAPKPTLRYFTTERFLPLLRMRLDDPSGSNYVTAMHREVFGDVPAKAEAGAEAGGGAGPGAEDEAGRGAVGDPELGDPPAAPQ
Nature of the test: HSD1 inhibition, HPLC assay of [3H]-E1 to [3H]-E2 conversion. It is filed as biochemical. The note with it: 100 nM; average of two measurements, except for compounds 8 and 9; read-out: HSD1 inhibition at 100 nM. As for the experimental part:
The inhibition was determined by HPLC using recombinant human HSD1 and HSD2 proteins as described in a prior study. In short, recombinant human HSD1 and HSD2 were produced in Sf9-insect cells. […] After incubation, the reaction was stopped by addition of […] 10% trichloroacetic acid per sample. […] The ratio of [3H]-E1 converted to [3H]-E2 or vice versa determines the conversion percentage of the samples. Inhibition was measured in three concentrations (100 nM, 1, and 5 µM) in order to follow the progression of inhibition efficiencies. Inhibition efficiencies of the tested inhibitors were calculated by comparing the conversion percentages of the samples including inhibitors with those of conversion controls (without inhibitors).
As for `O=c1oc2ccc(Cl)cc2cc1-c1cccc(O)c1` [Compound 4, 6-chloro-3–(3-hydroxyphenyl)-2H-chromen-2-one], the inhibition – broadly, the share of the control response that was lost under treatment – at 0.1 µM turned out to be 47%.
The same measure, in the same setting: next, `O=c1oc2ccccc2cc1-c1cccc(O)c1` [Compound 3, 3–(3-hydroxyphenyl)-2H-chromen-2-one]: 7%; `COc1ccc(-c2cc3cccc(O)c3oc2=O)cc1` [Compound 1, 8-hydroxy-3–(4-methoxyphenyl)-2H-chromen-2-one]: 16%; `COc1ccc2cc(-c3ccc(O)c(F)c3)c(=O)oc2c1` [Compound 6, 3–(3-fluoro-4-hydroxyphenyl)-7-methoxy-2H-chromen-2-one]: 14%.
`COc1ccc2oc(=O)c(-c3ccc(O)c(F)c3)cc2c1` [Compound 7, 3–(3-fluoro-4-hydroxyphenyl)-6-methoxy-2H-chromen-2-one]: the inhibition at 0.1 µM stood at 16%.

Staying with this test, now noted: 1 µM; average of three measurements, except for compounds 8 and 9; read-out: HSD1 inhibition at 1 µM.
For the compound `O=c1oc2ccc(Cl)cc2cc1-c1cccc(O)c1` [Compound 4, 6-chloro-3–(3-hydroxyphenyl)-2H-chromen-2-one], the inhibition at 1 µM is not below 68%.
Same read-out and setting: to `O=c1oc2ccccc2cc1-c1cccc(O)c1` [Compound 3, 3–(3-hydroxyphenyl)-2H-chromen-2-one] belongs 47%; to `COc1ccc(-c2cc3cccc(O)c3oc2=O)cc1` [Compound 1, 8-hydroxy-3–(4-methoxyphenyl)-2H-chromen-2-one], not below 68%.
Still for that read-out and setting: to `COc1ccc2cc(-c3ccc(O)c(F)c3)c(=O)oc2c1` [Compound 6, 3–(3-fluoro-4-hydroxyphenyl)-7-methoxy-2H-chromen-2-one] belongs 23%; to `COc1ccc2oc(=O)c(-c3ccc(O)c(F)c3)cc2c1` [Compound 7, 3–(3-fluoro-4-hydroxyphenyl)-6-methoxy-2H-chromen-2-one], 39%.

The test is the same for the next values; noted with them: 5 µM; read-out: HSD1 inhibition at 5 µM.
Turning to `O=c1oc2ccc(Cl)cc2cc1-c1cccc(O)c1` [Compound 4, 6-chloro-3–(3-hydroxyphenyl)-2H-chromen-2-one], the inhibition at 5 µM was 95%.
Same read-out and setting: to `O=c1oc2ccccc2cc1-c1cccc(O)c1` [Compound 3, 3–(3-hydroxyphenyl)-2H-chromen-2-one] belongs 76%.
The same measure, in the same setting: to `COc1ccc(-c2cc3cccc(O)c3oc2=O)cc1` [Compound 1, 8-hydroxy-3–(4-methoxyphenyl)-2H-chromen-2-one] belongs 88%; to `COc1ccc2cc(-c3ccc(O)c(F)c3)c(=O)oc2c1` [Compound 6, 3–(3-fluoro-4-hydroxyphenyl)-7-methoxy-2H-chromen-2-one], 27%; to `COc1ccc2oc(=O)c(-c3ccc(O)c(F)c3)cc2c1` [Compound 7, 3–(3-fluoro-4-hydroxyphenyl)-6-methoxy-2H-chromen-2-one], 62%.

The same test, now with this note: estimated from three measurements at 1 µM; average ± standard error; read-out: HSD1 inhibition ∼ pIC50 (converted).
Take `O=c1oc2ccc(Cl)cc2cc1-c1cccc(O)c1` [Compound 4, 6-chloro-3–(3-hydroxyphenyl)-2H-chromen-2-one]: the IC50 was 0.158 µM.
Same read-out and setting: next, `O=c1oc2ccccc2cc1-c1cccc(O)c1` [Compound 3, 3–(3-hydroxyphenyl)-2H-chromen-2-one]: 1.26 µM.
Take `COc1ccc(-c2cc3cccc(O)c3oc2=O)cc1` [Compound 1, 8-hydroxy-3–(4-methoxyphenyl)-2H-chromen-2-one]: the IC50 is 0.501 µM.
Consider `COc1ccc2cc(-c3ccc(O)c(F)c3)c(=O)oc2c1` [Compound 6, 3–(3-fluoro-4-hydroxyphenyl)-7-methoxy-2H-chromen-2-one], for which the IC50 was 3.98 µM.
Turning to `O=c1oc2ccc(O)cc2cc1-c1ccc(O)cc1` [Compound 2, 6-hydroxy-3–(4-hydroxyphenyl)-2H-chromen-2-one], the IC50 was 0.631 µM.
Same read-out and setting: next, `COc1ccc2oc(=O)c(-c3ccc(O)c(F)c3)cc2c1` [Compound 7, 3–(3-fluoro-4-hydroxyphenyl)-6-methoxy-2H-chromen-2-one]: 1.58 µM.

The same test, now with this note: read-out: HSD1 inhibition at 100 nM, 100 nM; average of two measurements, except for compounds 8 and 9.
For `O=c1oc2ccc(O)cc2cc1-c1ccc(O)cc1` [Compound 2, 6-hydroxy-3–(4-hydroxyphenyl)-2H-chromen-2-one], the inhibition at 0.1 µM turned out to be 26%.

The same test, now with this note: read-out: HSD1 inhibition at 1 µM, 1 µM; average of three measurements, except for compounds 8 and 9.
As for `O=c1oc2ccc(O)cc2cc1-c1ccc(O)cc1` [Compound 2, 6-hydroxy-3–(4-hydroxyphenyl)-2H-chromen-2-one], the inhibition at 1 µM was not below 68%.

Staying with this test, now noted: read-out: HSD1 inhibition at 5 µM, 5 µM.
`O=c1oc2ccc(O)cc2cc1-c1ccc(O)cc1` [Compound 2, 6-hydroxy-3–(4-hydroxyphenyl)-2H-chromen-2-one]: the inhibition at 5 µM amounted to 83%.
